Consider nine compounds from ChEMBL document CHEMBL1127515, “The [(methyloxy)imino]methyl moiety as a bioisoster of aryl. A novel class of completely aliphatic beta-adrenergic receptor antagonists” (J Med Chem, 1994).

For assay [1], the target named is Beta-2 adrenergic receptor (Cavia porcellus, UniProt Q8K4Z4). Nature of the assay: Inhibitory concentration against beta-2-adrenergic receptor in isolated guinea pig tracheal strips.
Assay [2] addresses Beta-1 adrenergic receptor (Cavia porcellus, UniProt B0FL73). In words: Inhibitory concentration against beta-1-adrenergic receptor in isolated guinea pig atria.
Assay [3] concerns the target Beta-1 adrenergic receptor (Rattus norvegicus, UniProt P18090). Nature of the assay: Binding affinity against beta-1-adrenergic receptor in rat brain. Format: tissue-based.
For assay [4], the target named is Beta-2 adrenergic receptor (Bos taurus, UniProt Q28044). In words: Binding affinity against beta-2-adrenergic receptor in bovine lung.
Beta-2 adrenergic receptor (Bos taurus, UniProt Q28044), sequence (Q28044 whole entry): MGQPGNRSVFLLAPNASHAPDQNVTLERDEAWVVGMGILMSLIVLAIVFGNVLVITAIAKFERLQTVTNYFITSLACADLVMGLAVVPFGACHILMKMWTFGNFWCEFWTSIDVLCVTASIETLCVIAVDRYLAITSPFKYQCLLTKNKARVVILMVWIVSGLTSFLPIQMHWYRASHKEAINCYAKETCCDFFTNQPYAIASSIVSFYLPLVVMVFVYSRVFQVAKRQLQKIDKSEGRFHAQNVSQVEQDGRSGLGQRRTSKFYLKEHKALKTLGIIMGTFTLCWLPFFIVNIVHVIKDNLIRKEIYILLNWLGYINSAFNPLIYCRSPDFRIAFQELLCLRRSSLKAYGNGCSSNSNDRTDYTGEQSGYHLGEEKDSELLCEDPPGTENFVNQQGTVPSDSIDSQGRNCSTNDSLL

Beta-1 adrenergic receptor (Rattus norvegicus, UniProt P18090), sequence (P18090 whole entry): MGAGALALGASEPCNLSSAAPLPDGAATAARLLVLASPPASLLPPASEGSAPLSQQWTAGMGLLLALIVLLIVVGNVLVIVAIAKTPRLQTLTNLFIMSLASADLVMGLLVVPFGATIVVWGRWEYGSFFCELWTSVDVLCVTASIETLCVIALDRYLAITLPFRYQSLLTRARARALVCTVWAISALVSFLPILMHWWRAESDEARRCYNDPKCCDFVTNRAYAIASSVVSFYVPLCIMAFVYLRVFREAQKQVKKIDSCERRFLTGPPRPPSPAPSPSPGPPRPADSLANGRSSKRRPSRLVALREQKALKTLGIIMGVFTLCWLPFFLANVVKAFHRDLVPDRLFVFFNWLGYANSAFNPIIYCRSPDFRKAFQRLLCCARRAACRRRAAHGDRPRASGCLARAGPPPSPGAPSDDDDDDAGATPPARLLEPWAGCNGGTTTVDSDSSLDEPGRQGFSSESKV
Beta-1 adrenergic receptor (Cavia porcellus, UniProt B0FL73), sequence (B0FL73 whole entry): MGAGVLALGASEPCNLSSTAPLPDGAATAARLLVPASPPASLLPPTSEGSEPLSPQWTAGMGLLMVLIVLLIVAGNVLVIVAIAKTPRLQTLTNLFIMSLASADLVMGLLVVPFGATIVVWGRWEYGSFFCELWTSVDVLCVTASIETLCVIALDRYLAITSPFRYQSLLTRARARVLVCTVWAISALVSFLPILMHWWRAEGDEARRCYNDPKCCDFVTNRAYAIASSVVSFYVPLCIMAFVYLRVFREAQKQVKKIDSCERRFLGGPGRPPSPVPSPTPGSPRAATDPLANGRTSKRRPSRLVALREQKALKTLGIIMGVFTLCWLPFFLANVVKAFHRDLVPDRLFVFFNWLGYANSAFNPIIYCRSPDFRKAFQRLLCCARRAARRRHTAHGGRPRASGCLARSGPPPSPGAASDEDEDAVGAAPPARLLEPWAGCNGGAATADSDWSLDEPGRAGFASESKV
Beta-2 adrenergic receptor (Cavia porcellus, UniProt Q8K4Z4), sequence (Q8K4Z4 whole entry): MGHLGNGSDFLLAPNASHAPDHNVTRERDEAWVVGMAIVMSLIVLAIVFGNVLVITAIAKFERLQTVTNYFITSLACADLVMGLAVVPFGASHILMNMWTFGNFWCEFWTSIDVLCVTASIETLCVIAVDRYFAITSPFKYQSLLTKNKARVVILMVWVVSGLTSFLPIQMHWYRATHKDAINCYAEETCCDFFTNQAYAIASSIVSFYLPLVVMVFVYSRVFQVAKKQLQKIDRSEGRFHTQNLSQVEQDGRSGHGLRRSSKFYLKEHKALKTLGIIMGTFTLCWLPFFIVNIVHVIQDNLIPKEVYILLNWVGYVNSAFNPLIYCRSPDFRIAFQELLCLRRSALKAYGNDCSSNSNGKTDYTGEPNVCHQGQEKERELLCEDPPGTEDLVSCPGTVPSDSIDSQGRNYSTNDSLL

Take `CCCO/N=C/C(O)CNC(C)(C)C` (centres undefined): the values for the IC50 in assay [1] and in assay [2] were 269 nM and 8320 nM, respectively.
For `CCCO/N=C/C(O)CNC(C)C` (centres undefined), the IC50 in assay [1] is 4370 nM; in assay [2], 15500 nM. In addition, the results for the Ki in assay [3] and in assay [4] were 1240 nM and 5600 nM, respectively.
For `CC(C)NCC(O)c1ccc(Cl)c(Cl)c1` (centres undefined) [DICHLOROISOPROTERENOL], in that order: 977 nM, 115 nM, 51 nM and 140 nM.
`C/C=N/OCC(O)CNC(C)C` (centres undefined): the values for the IC50 in assay [1] and in assay [2] were 12900 nM and 30200 nM, respectively. The values for the Ki in assay [3] and in assay [4] were 1480 nM and 7200 nM, respectively.
For `CCO/N=C/C(O)CNC(C)(C)C` (centres undefined), in that order: 977 nM, 13800 nM, 1080 nM and 1400 nM.
For `CC/C=N/OCC(O)CNC(C)(C)C` (centres undefined), in that order: 1550 nM, 26300 nM, 500 nM and 1260 nM.
Taken in the same sequence, the figures for `C/C=N/OCC(O)CNC(C)(C)C` (centres undefined) were 4070 nM, 13500 nM, 760 nM and 1980 nM.
As to `CC/C=N/OCC(O)CNC(C)C` (centres undefined), the IC50 in assay [1] was 12000 nM; in assay [2] it was 15500 nM. Besides, the Ki turned out to be 2200 nM in assay [3] and 4580 nM in assay [4].
For `CCO/N=C/C(O)CNC(C)C` (centres undefined), in that order: 3310 nM, 12300 nM, 1040 nM and 3500 nM.

For orientation: IC50 means the concentration at which inhibition is half-maximal. Higher therefore signals lower potency. The Ki is the equilibrium dissociation constant of an inhibitor or competing ligand from its target. Read a low Ki as a stronger hold on the target.
